Measured values taken from PubChem BioAssay (NCI).
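A five-concentration, 48-hour dose response in 96-well plates underlies each endpoint, interpolated linearly between surrounding concentrations. At the TGI there is no net growth.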

Columns and labels:
Assay in all cases: inhibition of tumour cell growth, NCI panel, 48 h
786-0 renal = system: 786-0 renal
A498 renal = system: A498 renal
ACHN renal = system: ACHN renal
CCRF-CEM leukemia = system: CCRF-CEM leukemia
COLO 205 colon = system: COLO 205 colon
DU-145 prostate = system: DU-145 prostate
EKVX NSCLC = system: EKVX NSCLC
HCC-2998 colon = system: HCC-2998 colon
HCT-116 colon = system: HCT-116 colon
HCT-15 colon = system: HCT-15 colon
HL-60(TB) leukemia = system: HL-60(TB) leukemia
HOP-62 NSCLC = system: HOP-62 NSCLC
HT29 colon = system: HT29 colon
IGROV1 ovarian = system: IGROV1 ovarian
K-562 leukemia = system: K-562 leukemia
LOX IMVI melanoma = system: LOX IMVI melanoma
M14 melanoma = system: M14 melanoma
MALME-3M melanoma = system: MALME-3M melanoma
MDA-MB-231 breast = system: MDA-MB-231 breast
MDA-MB-435 = system: MDA-MB-435
MDA-N = system: MDA-N
MOLT-4 leukemia = system: MOLT-4 leukemia
NCI-H460 lung = system: NCI-H460 lung
NCI-H522 lung = system: NCI-H522 lung
NCI/ADR-RES ovarian = system: NCI/ADR-RES ovarian
OVCAR-3 ovarian = system: OVCAR-3 ovarian
OVCAR-4 ovarian = system: OVCAR-4 ovarian
OVCAR-5 ovarian = system: OVCAR-5 ovarian
OVCAR-8 ovarian = system: OVCAR-8 ovarian
PC-3 prostate = system: PC-3 prostate
RPMI-8226 leukemia = system: RPMI-8226 leukemia
SF-268 CNS = system: SF-268 CNS
SF-295 CNS = system: SF-295 CNS
SF-539 CNS = system: SF-539 CNS
SK-MEL-2 melanoma = system: SK-MEL-2 melanoma
SK-MEL-28 melanoma = system: SK-MEL-28 melanoma
SK-OV-3 ovarian = system: SK-OV-3 ovarian
SN12C renal = system: SN12C renal
SNB-19 CNS = system: SNB-19 CNS
SNB-75 CNS = system: SNB-75 CNS
SR leukemia = system: SR leukemia
SW-620 colon = system: SW-620 colon
T-47D breast = system: T-47D breast
TK-10 renal = system: TK-10 renal
U251 CNS = system: U251 CNS
UACC-257 melanoma = system: UACC-257 melanoma
UACC-62 melanoma = system: UACC-62 melanoma
UO-31 renal = system: UO-31 renal
A549 NSCLC = system: A549 NSCLC
CAKI-1 renal = system: CAKI-1 renal
HOP-92 NSCLC = system: HOP-92 NSCLC
HS 578T breast = system: HS 578T breast
KM12 colon = system: KM12 colon
MCF7 breast = system: MCF7 breast
NCI-H226 lung = system: NCI-H226 lung
NCI-H23 lung = system: NCI-H23 lung
RXF 393 renal = system: RXF 393 renal
SK-MEL-5 melanoma = system: SK-MEL-5 melanoma

In the case of `CC1(C)CC[C@]2(C(=O)O)CC[C@]3(C)C(=CC[C@@H]4[C@@]5(C)CC[C@@H]6OC(C)(C)OC[C@@]6(C)[C@@H]5CC[C@]43C)[C@H]2C1`, the TGI (786-0 renal) is reported as 24 µM, the TGI (A498 renal) is reported as 51.7 µM and the TGI (ACHN renal) is reported as 15.7 µM. For the same molecule, the TGI (CCRF-CEM leukemia) was 37.1 µM, the TGI (COLO 205 colon) was 28.8 µM and the TGI (DU-145 prostate) was 31.9 µM. It also gave a TGI (EKVX NSCLC) of 19.4 µM, a TGI (HCC-2998 colon) of 27.5 µM and a TGI (HCT-116 colon) of 20.9 µM. It also gave a TGI (HCT-15 colon) of 13.9 µM, a TGI (HL-60(TB) leukemia) of 32.9 µM and a TGI (HOP-62 NSCLC) of 22.9 µM. For the same molecule, the TGI (HT29 colon) was 18.8 µM, the TGI (IGROV1 ovarian) was 30.2 µM and the TGI (K-562 leukemia) was 40.6 µM. The TGI (LOX IMVI melanoma) was 20.7 µM, the TGI (M14 melanoma) was 33.7 µM and the TGI (MALME-3M melanoma) was 25.6 µM. The TGI (MDA-MB-231 breast) was 12.9 µM, the TGI (MDA-MB-435) was 25.6 µM and the TGI (MDA-N) was 27 µM. The TGI (MOLT-4 leukemia) was 34.3 µM, the TGI (NCI-H460 lung) was 20 µM and the TGI (NCI-H522 lung) was 29 µM. The TGI (NCI/ADR-RES ovarian) was greater than 100 µM, the TGI (OVCAR-3 ovarian) was 18.5 µM and the TGI (OVCAR-4 ovarian) was greater than 100 µM. The TGI (OVCAR-5 ovarian) was 32.2 µM, the TGI (OVCAR-8 ovarian) was greater than 100 µM and the TGI (PC-3 prostate) was 19.1 µM. For the same molecule, the TGI (RPMI-8226 leukemia) was 66 µM, the TGI (SF-268 CNS) was 36.5 µM and the TGI (SF-295 CNS) was 27.6 µM. The TGI (SF-539 CNS) was 33.5 µM, the TGI (SK-MEL-2 melanoma) was 32.6 µM and the TGI (SK-MEL-28 melanoma) was 29.2 µM. It also gave a TGI (SK-OV-3 ovarian) of 91.8 µM, a TGI (SN12C renal) of 13 µM and a TGI (SNB-19 CNS) of 96.2 µM. It also gave a TGI (SNB-75 CNS) of 27.7 µM, a TGI (SR leukemia) of 34 µM and a TGI (SW-620 colon) of 29 µM. The TGI (T-47D breast) was 38.8 µM, the TGI (TK-10 renal) was 32.7 µM and the TGI (U251 CNS) was 20.4 µM. For the same molecule, the TGI (UACC-257 melanoma) was 31.8 µM, the TGI (UACC-62 melanoma) was 25.4 µM and the TGI (UO-31 renal) was 25.6 µM.

For `COc1ccc(OC)c(/C=C/c2cnnc3ccccc23)c1`, the TGI (786-0 renal) was greater than 10 µM, the TGI (A549 NSCLC) was greater than 10 µM and the TGI (ACHN renal) was greater than 10 µM. It also gave a TGI (CAKI-1 renal) greater than 10 µM, a TGI (CCRF-CEM leukemia) greater than 10 µM and a TGI (COLO 205 colon) greater than 10 µM. For the same molecule, the TGI (DU-145 prostate) was greater than 10 µM, the TGI (EKVX NSCLC) was greater than 10 µM and the TGI (HCC-2998 colon) was greater than 10 µM. The TGI (HCT-116 colon) was greater than 10 µM, the TGI (HCT-15 colon) was greater than 10 µM and the TGI (HL-60(TB) leukemia) was greater than 10 µM. It also gave a TGI (HOP-62 NSCLC) greater than 10 µM, a TGI (HOP-92 NSCLC) greater than 10 µM and a TGI (HS 578T breast) of 7.76 µM. For the same molecule, the TGI (HT29 colon) was greater than 10 µM, the TGI (IGROV1 ovarian) was greater than 10 µM and the TGI (K-562 leukemia) was greater than 10 µM. The TGI (KM12 colon) was greater than 10 µM, the TGI (LOX IMVI melanoma) was greater than 10 µM and the TGI (M14 melanoma) was greater than 10 µM. The TGI (MCF7 breast) was greater than 10 µM, the TGI (MDA-MB-231 breast) was greater than 10 µM and the TGI (MDA-MB-435) was 2.01 µM. For the same molecule, the TGI (MDA-N) was 2.5 µM, the TGI (MOLT-4 leukemia) was greater than 10 µM and the TGI (NCI-H226 lung) was greater than 10 µM. It also gave a TGI (NCI-H23 lung) greater than 10 µM, a TGI (NCI-H460 lung) greater than 10 µM and a TGI (NCI-H522 lung) greater than 10 µM. For the same molecule, the TGI (NCI/ADR-RES ovarian) was 7.81 µM, the TGI (OVCAR-3 ovarian) was greater than 10 µM and the TGI (OVCAR-4 ovarian) was greater than 10 µM. It also gave a TGI (OVCAR-5 ovarian) greater than 10 µM, a TGI (OVCAR-8 ovarian) greater than 10 µM and a TGI (PC-3 prostate) greater than 10 µM. For the same molecule, the TGI (RPMI-8226 leukemia) was greater than 10 µM, the TGI (RXF 393 renal) was greater than 10 µM and the TGI (SF-268 CNS) was greater than 10 µM. It also gave a TGI (SF-295 CNS) greater than 10 µM, a TGI (SF-539 CNS) of 8.62 µM and a TGI (SK-MEL-2 melanoma) of 6.43 µM. It also gave a TGI (SK-MEL-28 melanoma) greater than 10 µM, a TGI (SK-MEL-5 melanoma) greater than 10 µM and a TGI (SK-OV-3 ovarian) greater than 10 µM. It also gave a TGI (SN12C renal) greater than 10 µM, a TGI (SNB-19 CNS) greater than 10 µM and a TGI (SNB-75 CNS) greater than 10 µM. For the same molecule, the TGI (SR leukemia) was 5.14 µM, the TGI (SW-620 colon) was greater than 10 µM and the TGI (T-47D breast) was greater than 10 µM. The TGI (TK-10 renal) was greater than 10 µM, the TGI (U251 CNS) was greater than 10 µM and the TGI (UACC-257 melanoma) was greater than 10 µM. The TGI (UACC-62 melanoma) was greater than 10 µM and the TGI (UO-31 renal) was greater than 10 µM.

In the case of `COc1cc(OC)nc(NC(=O)NS(=O)(=O)c2cccc3ncn(C)c(=O)c23)n1`, the TGI (786-0 renal) is reported as greater than 100 µM, the TGI (A498 renal) is reported as greater than 100 µM and the TGI (A549 NSCLC) is reported as greater than 100 µM. The TGI (ACHN renal) was greater than 100 µM, the TGI (CAKI-1 renal) was greater than 100 µM and the TGI (CCRF-CEM leukemia) was greater than 100 µM. For the same molecule, the TGI (COLO 205 colon) was greater than 100 µM, the TGI (DU-145 prostate) was greater than 100 µM and the TGI (EKVX NSCLC) was greater than 100 µM. It also gave a TGI (HCT-116 colon) greater than 100 µM, a TGI (HCT-15 colon) greater than 100 µM and a TGI (HL-60(TB) leukemia) greater than 100 µM. For the same molecule, the TGI (HOP-62 NSCLC) was greater than 100 µM, the TGI (HOP-92 NSCLC) was greater than 100 µM and the TGI (HS 578T breast) was greater than 100 µM. It also gave a TGI (HT29 colon) greater than 100 µM, a TGI (IGROV1 ovarian) greater than 100 µM and a TGI (K-562 leukemia) greater than 100 µM. It also gave a TGI (LOX IMVI melanoma) greater than 100 µM, a TGI (M14 melanoma) greater than 100 µM and a TGI (MALME-3M melanoma) greater than 100 µM. For the same molecule, the TGI (MCF7 breast) was greater than 100 µM, the TGI (MDA-MB-231 breast) was greater than 100 µM and the TGI (MDA-MB-435) was greater than 100 µM. It also gave a TGI (MDA-N) greater than 100 µM, a TGI (MOLT-4 leukemia) greater than 100 µM and a TGI (NCI-H226 lung) greater than 100 µM. It also gave a TGI (NCI-H23 lung) greater than 100 µM, a TGI (NCI-H522 lung) greater than 100 µM and a TGI (NCI/ADR-RES ovarian) greater than 100 µM. The TGI (OVCAR-3 ovarian) was greater than 100 µM, the TGI (OVCAR-4 ovarian) was greater than 100 µM and the TGI (OVCAR-5 ovarian) was greater than 100 µM. For the same molecule, the TGI (OVCAR-8 ovarian) was greater than 100 µM, the TGI (RPMI-8226 leukemia) was greater than 100 µM and the TGI (RXF 393 renal) was greater than 100 µM. It also gave a TGI (SF-268 CNS) greater than 100 µM, a TGI (SF-295 CNS) greater than 100 µM and a TGI (SF-539 CNS) greater than 100 µM. The TGI (SK-MEL-2 melanoma) was greater than 100 µM, the TGI (SK-MEL-5 melanoma) was greater than 100 µM and the TGI (SK-OV-3 ovarian) was greater than 100 µM. It also gave a TGI (SN12C renal) greater than 100 µM, a TGI (SNB-19 CNS) greater than 100 µM and a TGI (SNB-75 CNS) greater than 100 µM. It also gave a TGI (SR leukemia) greater than 100 µM, a TGI (SW-620 colon) greater than 100 µM and a TGI (T-47D breast) greater than 100 µM. It also gave a TGI (TK-10 renal) greater than 100 µM, a TGI (U251 CNS) greater than 100 µM and a TGI (UACC-257 melanoma) greater than 100 µM. The TGI (UACC-62 melanoma) was greater than 100 µM and the TGI (UO-31 renal) was greater than 100 µM.
